Here are results for five compounds from patent publication US12503711B2, “Method of producing and processing diamines to a diamine free base using a carbonate intermediate and an engineered microorganism” (Genomatica, Inc., priority 2014, dated 2025).

The structures appear in SMILES notation. Several values for one entry are separate records, joined by “and”; a condition that tells them apart may be missing. Equal entries are not always repeated. Where two headings read alike, the source gives them in different places.

For data set [1] the following is noted: water solubility of the solvent used, cited from earlier work.
A short description of data set [2]: Solvent extraction of HMD from aqueous feed (recovery, distribution coefficient, selectivity). The data set is classed as physicochemical. The following applies: for available free base HMD extracted: 1:1 solvent to feed ratio. The protocol:
The example describes the solvent extraction of HMD from the CO2 stripped solution prepared in Example 3 above as well as extracting HMD from an aqueous solution without pH adjustment as a control for solvent performance. The following protocol was used in this example:
The pH of the aqueous feed was measured. In a 50 mL falcon tube, 20 g of solvent was mixed with 20 g of feed. This combination was further aggressively mixed in the falcon tube for 5 minutes and vortexed for 1 minute. The tube with the mixed solvent and feed was allowed to settle until phase separation was complete. The volume of the bottom, aqueous layer was recorded. A sample of the top layer was carefully pipetted out the top layer. A sample the bottom layer was also obtained and the pH of the bottom layer measured. The recovery, distribution coefficients and selectivity based on mass balance were calculated.
The extraction data for three solvents extracting HMD from water are set out in Table 4-1.

Data set [3] is described as follows: Regeneration of HMD free base from CO2-adjusted MM9 solution by air sparge and reflux. The data set is classed as physicochemical. Conditions: for CO2:HMD ratio: based on calculation from pH. The protocol: A 250 mL four-neck flask was fitted with a condenser, temperature probe, and air sparge needle. The system was open to air through the top of the condenser. The feed was an aqueous HMD solution in MM9 where pH was adjusted to 8.68 with CO2. The feed solution was analyzed for HMD concentration by LCMS and the pH was measured. The solution was sparged with air and refluxed at 85° C. for three hours. The resulting solution's pH was taken and the concentration of HMD measured by LCMS.
The concentration increased slightly as some water escaped through the condenser and the solution was concentrated. The fraction of HMD in free base form at pH 11.26 is 57%.

A short description of data set [4]: HMD/CO2 pH equilibrium under changing conditions (CO2 sparge, air sparge, heat). The format is physicochemical. Conditions: for pH (temp. in ° C.): 10% w/w aqueous HMD solution. On the procedure: This experiment illustrates HMD/CO2 pH equilibrium under changing conditions. In this example, a 10% w/w aqueous HMD solution was prepared (70% HMD purchased from Sigma Aldrich). The HMD solution was heated to 30° C. and initial pH recorded. Next, CO2 (approximately 98% pure) was bubbled into the solution for 60 min while monitoring pH. The CO2 sparge was stopped. Air was sparged into solution for 30 min while monitoring pH. […] The pH was measured by sampling 3 mL to a falcon tube and cooling to 30° C. […] The solution was cooled to 30° C. and a final pH recorded. The measured pH values are plotted in Graphs 1-1, 1-2 and 1-3, below. It was noted that the temperature probe on pH meter was reading 44.4° C. at […]. and cooled back down to 30° C. by the end of the 60 min. […] This temperature increase can also account for the nonlinearity in FIG. 27-29 because pH decreases with increasing temperature.
Extraction should be possible at this pH. Aeration during fermentation may be able to strip off some of the dissolved CO2.

A short description of data set [5]: Simulated fermentation: CO2 and HMD fed into MM9 solution, pH monitored. The format is physicochemical. The following applies: average rate 3.31 g/L/hr. From the text:
This example reports the results of a simulated fermentation process. Briefly, CO2 (approximately 98% pure) and HMD (70% HMD from Sigma Aldrich) were fed into an MM9 solution that had the following composition: • 0.68% (6.8 g/L) Disodium phosphate Na2HPO4 • 0.3% (3 g/L) Monopotassium phosphate KH2PO4 • 0.15%(1.5 g/L) Ammonium chloride NH4Cl • 0.1% (1 g/L) Ammonium sulfate (NH4)2SO4 • 0.05% (0.5 g/L) Sodium chloride NaCl
The measured pH of the solution and concentration of HMD added over time are set out in FIG. 30.
This feed rate used in this example corresponds to an average rate of 3.31 g/L/hr (a reasonable production rate in an industrial fermentation process). The final titer and feed concentration of HMD was confirmed by LCMS. The HMD and CO2 reach a dynamic equilibrium around pH 8.5. As more HMD is added, more CO2 is absorbed. The simulated HMD:CO2 ratio is 1.95 for pH=8.53. […] FIGS. 31 and 32 illustrate the relative concentration of species as a function of pH for HMD and H2CO3, respectively.
At pH 8.5 (dashed, black line) the major species in solution are the diprotonated HMD and bicarbonate. A minority presence of HMD-carbamate may be present as well.

[6] abbreviates: HMD in DI water, [HMD] = 835 mM, 20 g solvent : 20 g feed.
Setting [7] is: HMD in DI water, [HMD] = 835 mM, bottom aqueous layer after extraction, 20 g solvent : 20 g feed.
Setting [8] is: HMD in deionized (DI) water, [HMD] = 835 mM, aqueous feed before extraction.

Take `CCCCCCO` [1-hexanol]: the “% Solubility” value in data set [1] (Table 4-1) and in data set [1] (Table 4-2) was 0.59% throughout.

In the case of `OC1CCCCC1` [Cyclohexanol], the “% water in extract” value in data set [2] (setting [6]) is on record as 16.65%. The pH after in data set [2] (setting [7]) came out at 12.36. Moreover, the pH before in data set [2] (setting [8]) stood at 12.70.

With `NCCCCCCN` [HMD, Hexamethylenediamine], the “available free base HMD extracted” value in data set [2] (solvent 1-hexanol) was “approximately 43%”; in data set [2] (solvent hexane), “about 7%”. In addition, the “free base HMD available, based on the pH before extraction” value in data set [2] (stripped solution from Example 3) amounted to 60%. For the same compound, the pH in data set [3] (Feed stream: HMD in MM9, pH adjusted with CO2, @ 21.7° C.) is listed as 8.68 @; in data set [3] (Product stream after air sparge and reflux at 85° C. for three hours, @ 23.5° C.) it was 11.26 @. Besides, the figures for the “CO2:HMD ratio” value in data set [3] (Feed stream) and in data set [3] (Product stream) were 1.91 and 0.277, respectively. Also, the “fraction of HMD in free base form” value in data set [3] (at pH 11.26) is 57%. Besides, in data set [3] (feed pH 8.68 in MM9, air sparge, reflux at 85° C for three hours), the “pH after CO2 stripping” value was determined as 11.26. For the same compound, the “pH restored by air and heat” value in data set [4] (10% w/w aqueous HMD solution after 60 min CO2 bubbling, then air sparge and heating to 80-88° C, pH read at 30° C) was 11.02. Also, the “pH (temp. in ° C.)” value in data set [4] (Heated to 80° C. for 30 min. w/ sparge, sample cooled to 30 °C) was determined as 10.49; in data set [4] (Heated to 88° C. for 15 min. w/ sparge, pH at 22.5 °C) it was 11.02; in data set [4] (Heated to 88° C. for 15 min. w/ sparge, pH at 30 °C), 10.76; in data set [4] (House air sparge for 30 min. at 30° C., pH at 30 °C), 8.23; in data set [4] (Initial conditions, pH at 30 °C), 12.25; in data set [4] (Sat open to air over night, pH at 20.6 °C), 10.78. Also, in data set [4] (Sparge CO2 for 60 min. at 30° C., pH at 30 °C), the “pH (temp. in ° C.)” value is 7.96. Besides, the “pH of dynamic equilibrium of HMD and CO2” value in data set [5] was about 8.5.

`CCCCCC` [Hexane]: in data set [2], the “% water in extract” value is recorded as under 0.001%; the pH after is 12.54 and 11.42; the pH before is 12.55 and 11.48. The “% Solubility” value in data set [1] (Table 4-1) is given as 9.4 × 10^−4%.

In the case of `CC(C)CCO` [Isopentanol], the “% water in extract” value in data set [2] (setting [6]) came out at 9.08%. Moreover, the pH after in data set [2] (setting [7]) was determined as 12.16. Moreover, the pH before in data set [2] (setting [8]) amounted to 12.70. The “% Solubility” value in data set [1] (Table 4-1) was 2.8%.
